Where two headings read alike, the source gives them in different places.
Legend:
[1] = system: P. falciparum 3D7 parasites; test: P. falciparum growth inhibition assay, 1-cycle (72 h treatment), SYBR DNA staining (library screen at 2 μg/mL and dose-response); type: cell-based, Plasmodium falciparum; settings: for activity at 2 µg/mL: Plasmodium falciparum, 3D7, 72 h
[2] = system: P. falciparum 3D7 parasites; test: P. falciparum growth inhibition assay, 2-cycle (120 h treatment), delayed-death screen and dose-response; type: cell-based, Plasmodium falciparum; settings: for activity at 2 µg/mL: Plasmodium falciparum, 3D7, 120 h
[3] = system: T. gondii RH strain (RH-Tub-eYFP) tachyzoites; test: microbe, parasite or virus in culture; type: cell-based, Toxoplasma gondii; settings: 72 h; for percent parasite growth at 2 µg/mL: Toxoplasma gondii
[4] = library screen at 2 μg/mL, 72 h, % growth, replicate 1
[5] = library screen at 2 μg/mL, 72 h, % growth, replicate 2
[6] = library screen at 2 μg/mL, 120 h, % growth, replicate 1
[7] = library screen at 2 μg/mL, 120 h, % growth, replicate 2
[8] = library screen at 2 μg/mL, % growth, replicate 1
[9] = library screen at 2 μg/mL, % growth, replicate 2
[10] = P. falciparum 3D7, 72 h, parasite screen at 2 μg/mL, % growth, replicate 1
[11] = P. falciparum 3D7, 72 h, parasite screen at 2 μg/mL, % growth, replicate 2
[12] = P. falciparum 3D7, 120 h, parasite screen at 2 μg/mL, % growth, replicate 1
[13] = P. falciparum 3D7, 120 h, parasite screen at 2 μg/mL, % growth, replicate 2
[14] = T. gondii, parasite screen at 2 μg/mL, % growth, replicate 1
[15] = T. gondii, parasite screen at 2 μg/mL, % growth, replicate 2

| SMILES | Pf_72h_%Growth_Rep1 [1, 4] [%] | Pf_72h_%Growth_Rep2 [1, 5] [%] | Pf_120h_%Growth_Rep1 [2, 6] [%] | Pf_120h_%Growth_Rep2 [2, 7] [%] | Tg_72h_%Growth_Rep1 [3, 8] [%] | Tg_72h_%Growth_Rep2 [3, 9] [%] | Pf_72h_%Growth_Rep1 [1, 10] [%] | Pf_72h_%Growth_Rep2 [1, 11] [%] | Pf_120h_%Growth_Rep1 [2, 12] [%] | Pf_120h_%Growth_Rep2 [2, 13] [%] | Tg_72h_%Growth_Rep1 [3, 14] [%] | Tg_72h_%Growth_Rep2 [3, 15] [%] | other results |
| --- | --- | --- | --- | --- | --- | --- | --- | --- | --- | --- | --- | --- | --- |
| CO[C@H]1\C=C/C=C\C=C/C[C@H](OC(=O)[C@@H](C)NC(=O)C2CCCCC2)[C@H](C)[C@@H](O)/C(C)=C\CCc2cc(O)cc(c2O)NC(=O)C1 [Ansatrienin B] | 4.68 | 7.24 | -0.38 | 4.42 | 19.16 | 11.14 |  |  |  |  |  |  |  |
| CNC1CC2OC(C)(C1OC)n1c3ccccc3c3c4c(c5c6ccccc6n2c5c31)C(=O)NC4=O (stereo not drawn) [BIA-O1137] |  |  |  |  |  |  | 5.55 | 3.48 | 5.90 | 15.39 | 57.26 | 18.54 |  |
| COc1cc2nccc3c4ccccc4n(c1=O)c23 [BIA-M1940] |  |  |  |  |  |  | 95.54 | 122.74 | 112.19 | 105.38 | 156.47 | 73.09 |  |
| O=c1cccc2n1C[C@H]1C[C@@H]2CN2CCCC[C@H]12 [Anagyrine] |  |  |  |  |  |  |  |  |  |  |  |  | activity at 2 µg/mL ([1]; library screen at 2 μg/mL, 72 h, % growth, replicate 1, read-out: Pf_72h_%Growth_Rep1): 88.8%; activity at 2 µg/mL ([1]; library screen at 2 μg/mL, 72 h, % growth, replicate 2, read-out: Pf_72h_%Growth_Rep2): 124%; activity at 2 µg/mL ([2]; library screen at 2 μg/mL, 120 h, % growth, replicate 1, read-out: Pf_120h_%Growth_Rep1): 106%; activity at 2 µg/mL ([2]; library screen at 2 μg/mL, 120 h, % growth, replicate 2, read-out: Pf_120h_%Growth_Rep2): 103%; percent parasite growth at 2 µg/mL ([3]; library screen at 2 μg/mL, % growth, replicate 1, read-out: Tg_72h_%Growth_Rep1): 136%; percent parasite growth at 2 µg/mL ([3]; library screen at 2 μg/mL, % growth, replicate 2, read-out: Tg_72h_%Growth_Rep2): 82.1% |
| O=C(O)c1nccc2c1[nH]c1ccccc12 [Carboline 1-carboxylic acid, β-] |  |  |  |  |  |  |  |  |  |  |  |  | Pf_72h_%Growth_Rep1 ([1]; P. falciparum, 72 h, screen at 2 μg/mL, replicate 1): 89.67%; Pf_72h_%Growth_Rep2 ([1]; P. falciparum, 72 h, screen at 2 μg/mL, replicate 2): 90.01%; Pf_120h_%Growth_Rep1 ([2]; P. falciparum, 120 h, screen at 2 μg/mL, replicate 1): 166.51%; Pf_120h_%Growth_Rep2 ([2]; P. falciparum, 120 h, screen at 2 μg/mL, replicate 2): 96.73%; Tg_72h_%Growth_Rep1 ([3]; T. gondii, screen at 2 μg/mL, replicate 1): 4.34%; Tg_72h_%Growth_Rep2 ([3]; T. gondii, screen at 2 μg/mL, replicate 2): 7.03% |
| COc1c2c(cc3c1c(=O)c1ccccc1n3C)OCO2 [Evoxanthine] | 81.42 | 82.46 | 87.52 | 89.49 | 136.78 | 86.81 |  |  |  |  |  |  |  |
| Cc1cc(O)cc(O)c1C(=O)O [BIA-O1657] |  |  |  |  |  |  | 83.41 | 79.75 | 95.39 | 131.31 | 114.94 | 95.01 |  |
| COC1=C(O)c2c(O)cc(C)c3c(O)cc(O)c(c23)C1=O [Funalenone] | 89.99 | 108.10 | 97.73 | 107.04 | 131.40 | 92.93 |  |  |  |  |  |  |  |
| Cc1c2c(c(O)c3c(O)cccc13)C(=O)[C@]1(O)C(O)=C(C(N)=O)C(=O)[C@H](N(C)C)[C@@H]1C2.Cl [Epianhydrotetracycline hydrochloride] | 83.48 | 108.73 | 77.42 | 113.33 | 166.02 | 109.09 |  |  |  |  |  |  |  |
